# Patent US20150353495A1 (PORTOLA PHARMACEUTICALS, INC., priority 2010, published 2015)
# Key:
# Assay type in all cases: biochemical
# JAK2 = biological target: T1, JAK2 (Homo sapiens, UniProt O60674); assay: Z'-LYTE kinase assay JAK2
# T1 construct: 5 μl of catalytic domain recombinant Kinase enzyme+Tyr peptide substrate (Invitrogen, CA); purchased Invitrogen
# Method in brief: (§1)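 Catalytic-domain recombinant kinase was incubated with Tyr6 FRET peptide, ATP and compound (1% DMSO final) for 1 h at room temperature. Protease development followed for 1 h, cleaving only non-phosphorylated peptide. Inhibition of phosphorylation was read as coumarin/fluorescein FRET fluorescence.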
# JAK3 = biological target: T2, JAK3 (Homo sapiens, UniProt P52333); assay: Z'-LYTE kinase assay JAK3
# T2 construct: 5 μl of catalytic domain recombinant Kinase enzyme+Tyr peptide substrate (Invitrogen, CA); purchased Invitrogen
# Method in brief: as §1
# JAK1 = biological target: T3, JAK1 (Homo sapiens, UniProt P23458); assay: Z'-LYTE kinase assay JAK1
# T3 construct: 5 μl of catalytic domain recombinant Kinase enzyme+Tyr peptide substrate (Invitrogen, CA); purchased Invitrogen
# Method in brief: as §1
# T1 sequence (O60674 849-1124 limits assumed): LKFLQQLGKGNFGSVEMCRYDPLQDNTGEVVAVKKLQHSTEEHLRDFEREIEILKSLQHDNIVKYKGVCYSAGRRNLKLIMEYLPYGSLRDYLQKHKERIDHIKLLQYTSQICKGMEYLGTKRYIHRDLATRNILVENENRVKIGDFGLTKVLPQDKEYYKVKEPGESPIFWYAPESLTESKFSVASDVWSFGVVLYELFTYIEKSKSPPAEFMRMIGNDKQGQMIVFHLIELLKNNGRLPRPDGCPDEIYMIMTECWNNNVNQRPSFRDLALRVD
# T2 sequence (P52333 822-1111 limits assumed): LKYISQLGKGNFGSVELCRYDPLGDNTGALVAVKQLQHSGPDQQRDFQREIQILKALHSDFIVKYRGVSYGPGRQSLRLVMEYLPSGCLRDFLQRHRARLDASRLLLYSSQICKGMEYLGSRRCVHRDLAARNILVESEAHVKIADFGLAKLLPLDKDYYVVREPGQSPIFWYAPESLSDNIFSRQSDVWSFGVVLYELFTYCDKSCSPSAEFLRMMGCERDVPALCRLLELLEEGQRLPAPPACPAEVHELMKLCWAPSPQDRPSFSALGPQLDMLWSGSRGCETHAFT
# T3 sequence (P23458 875-1153 limits assumed): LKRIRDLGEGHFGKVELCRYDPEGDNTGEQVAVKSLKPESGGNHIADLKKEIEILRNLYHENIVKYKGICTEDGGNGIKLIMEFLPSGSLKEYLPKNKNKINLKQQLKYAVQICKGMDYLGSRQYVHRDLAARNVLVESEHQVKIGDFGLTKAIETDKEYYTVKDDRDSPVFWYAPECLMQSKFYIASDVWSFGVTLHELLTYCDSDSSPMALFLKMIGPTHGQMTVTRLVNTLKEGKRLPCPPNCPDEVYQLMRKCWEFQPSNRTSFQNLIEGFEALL
Structure (SMILES),IC50 (JAK2),IC50 (JAK3),IC50 (JAK1)
"CN(C)C(=O)c1ccc(Nc2cc(NCc3ccccc3)c(C(=O)N(C)C)cn2)cc1 [Example 30, 4-(benzylamino)-6-(4-(dimethylcarbamoyl)phenylamino)-N,N-dimethylnicotinamide]",> 1000 nM,> 1000 nM,> 1000 nM
"NC(=O)c1cnc(Nc2ccc(CN3CCOCC3)cc2)cc1NC1(c2ccccc2)CC1 [Example 127, 6-(4-(morpholinomethyl)phenylamino)-4-(1-phenylcyclopropylamino)nicotinamide]",100 to 1000 nM,10 to 100 nM,> 1000 nM
"CC(=O)N1CCC[C@H](CNc2cc(Nc3ccc(C(=O)N(C)C)c(C(F)(F)F)c3)ncc2C(N)=O)C1 [Example 274, (R)-4-((1-acetylpiperidin-3-yl)methylamino)-6-(4-(dimethylcarbamoyl)-3-(trifluoromethyl)phenylamino)nicotinamide]",> 1000 nM,100 to 1000 nM,> 1000 nM
"COc1ccc(Nc2cc(NCc3cncnc3)c(C(N)=O)cn2)cc1 [Example 286, 6-(4-methoxyphenylamino)-4-(pyrimidin-5-ylmethylamino)nicotinamide]",> 1000 nM,100 to 1000 nM,> 1000 nM
"CC(=O)Nc1ccc(Nc2cc(NCc3cccc4[nH]ccc34)c(C(N)=O)cn2)cc1 [Example 472, 4-((1H-indol-4-yl)methylamino)-6-(4-acetamidophenylamino)nicotinamide]",10 to 100 nM,< 1 nM,1 to 10 nM
"CCC(=O)N1CCC(c2ccc(Nc3cc(NCC4(c5ccccc5)CC4)c(C(N)=O)cn3)cc2)CC1 [Example 194, 4-((1-phenylcyclopropyl)methylamino)-6-(4-(1-propionylpiperidin-4-yl)phenylamino)nicotinamide]",> 1000 nM,100 to 1000 nM,> 1000 nM
"CCC(=O)N1CCC(c2ccc(Nc3cc(NCc4ccc(F)c(F)c4)c(C(N)=O)cn3)cc2)CC1 [Example 148, 4-(3,4-difluorobenzylamino)-6-(4-(1-propionylpiperidin-4-yl)phenylamino)nicotinamide]",100 to 1000 nM,100 to 1000 nM,> 1000 nM
"NC(=O)c1cnc(Nc2ccc(C(=O)NCC(F)(F)F)cc2)cc1NCc1cncc(F)c1 [Example 313, 4-((5-fluoropyridin-3-yl)methylamino)-6-(4-(2,2,2-trifluoroethylcarbamoyl)phenylamino)nicotinamide]",100 to 1000 nM,10 to 100 nM,100 to 1000 nM
"CCC(=O)N1CCC(c2ccc(Nc3cc(N[C@H](C)C(C)C)c(C(N)=O)cn3)cc2)CC1 [Example 189, (R)-4-(3-methylbutan-2-ylamino)-6-(4-(1-propionylpiperidin-4-yl)phenylamino)nicotinamide]",10 to 100 nM,1 to 10 nM,10 to 100 nM
"COC[C@@H](Nc1cc(Nc2ccc(C(=O)N(C)C)cc2)ncc1C(N)=O)c1ccccc1 [Example 263, (S)-6-(4-(dimethylcarbamoyl)phenylamino)-4-(2-methoxy-1-phenylethylamino)nicotinamide]",100 to 1000 nM,10 to 100 nM,> 1000 nM
"NC(=O)c1cnc(Nc2ccc(C(=O)N3CCOCC3)cc2)cc1NCC1CCCC1 [Example 42, 4-(cyclopentylmethylamino)-6-(4-(morpholine-4-carbonyl)phenylamino)nicotinamide]",100 to 1000 nM,10 to 100 nM,100 to 1000 nM
"NC(=O)c1cnc(Nc2ccc(C3CCOCC3)cc2)cc1NC1CCOCC1 [Example 139, 6-(4-(tetrahydro-2H-pyran-4-yl)phenylamino)-4-(tetrahydro-2H-pyran-4-ylamino)nicotinamide]",> 1000 nM,100 to 1000 nM,> 1000 nM
"CCC(=O)N1CCC(c2ccc(Nc3cc(NCc4cccc5[nH]ncc45)c(C(N)=O)cn3)cc2)CC1 [Example 210, 4-((1H-indazol-4-yl)methylamino)-6-(4-(1-propionylpiperidin-4-yl)phenylamino)nicotinamide]",10 to 100 nM,1 to 10 nM,10 to 100 nM
